Source: US6211244A, “Calcium receptor-active compounds” (priority 1995, dated 2001)

Target: T1, human calcium receptor (Homo sapiens, UniProt P41180, R990G)
T1 construct: expressed in transfected cells; host or cells: HEK 293
T1 sequence (P41180 20-1078 R990G): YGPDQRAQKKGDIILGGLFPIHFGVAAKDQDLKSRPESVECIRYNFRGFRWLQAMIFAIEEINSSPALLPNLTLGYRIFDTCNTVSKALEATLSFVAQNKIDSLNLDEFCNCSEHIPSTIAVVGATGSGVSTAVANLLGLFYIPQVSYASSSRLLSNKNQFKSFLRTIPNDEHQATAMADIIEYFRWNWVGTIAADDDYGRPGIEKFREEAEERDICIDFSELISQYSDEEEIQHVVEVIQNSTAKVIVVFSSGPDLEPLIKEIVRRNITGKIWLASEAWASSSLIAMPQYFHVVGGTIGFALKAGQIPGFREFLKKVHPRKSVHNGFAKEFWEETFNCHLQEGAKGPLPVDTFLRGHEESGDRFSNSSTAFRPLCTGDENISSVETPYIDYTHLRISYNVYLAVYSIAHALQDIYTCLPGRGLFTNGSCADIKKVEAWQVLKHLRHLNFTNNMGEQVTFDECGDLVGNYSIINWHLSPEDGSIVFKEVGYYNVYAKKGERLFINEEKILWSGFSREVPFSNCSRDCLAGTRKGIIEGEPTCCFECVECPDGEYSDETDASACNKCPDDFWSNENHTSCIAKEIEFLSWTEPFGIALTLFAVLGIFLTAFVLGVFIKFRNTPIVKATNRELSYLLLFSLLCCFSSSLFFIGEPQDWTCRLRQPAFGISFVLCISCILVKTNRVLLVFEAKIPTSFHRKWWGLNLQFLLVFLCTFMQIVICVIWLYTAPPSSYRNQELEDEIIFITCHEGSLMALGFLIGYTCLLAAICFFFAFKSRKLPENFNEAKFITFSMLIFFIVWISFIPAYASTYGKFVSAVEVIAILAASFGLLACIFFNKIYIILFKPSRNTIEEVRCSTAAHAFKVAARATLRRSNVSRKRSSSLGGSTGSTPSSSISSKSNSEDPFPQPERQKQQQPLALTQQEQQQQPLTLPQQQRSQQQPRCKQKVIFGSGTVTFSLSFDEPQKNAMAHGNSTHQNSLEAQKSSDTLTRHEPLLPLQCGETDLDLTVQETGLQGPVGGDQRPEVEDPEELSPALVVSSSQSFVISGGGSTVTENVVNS
Assay: increases in [Ca^2+ ]i in HEK-293 cells expressing the human calcium receptor (fura-2 loaded HEK 293/pHuPCaR4.0 cells), % activity
Format: cell-based
Details: for activity at […]: HEK293

Compound | % activity (33 ng/mL) | % activity (330 ng/mL) | % activity (3300 ng/mL) | % activity (330 ng/mL, listed as 4U) | activity at […] (33 ng/mL) | activity at […] (330 ng/mL)
COc1ccccc1CCCN[C@H](C)c1cccc2ccccc12 [Compound 16I] | 96% | 117% | 121% |  |  | 
COc1ccc(C(C)NC(C)c2cccc3ccccc23)cc1 (centres unmarked) [Compound 16J] | 47% | 76% | 92% |  |  | 
COc1ccc([C@@H](C)N[C@H](C)c2cccc(OC)c2)cc1 [Compound 16L, (R,R)-N-[1-(4-methoxyphenyl)ethyl]-1-(3-methoxyphenyl)ethylamine] | 98% | 138% | 146% |  |  | 
COc1ccc([C@@H](C)N[C@@H](C)c2cccc(OC)c2)cc1 [Compound 16M, (S,R)-N-[1-(4-methoxyphenyl)ethyl]-1-(3-methoxyphenyl)ethylamine] | 11% | 68% | 130% |  |  | 
COc1cccc(C(C)NC(C)c2cccc(OC)c2)c1 (centres unmarked) [Compound 16N] | 82% | 159% | 122% |  |  | 
COc1cccc(C(C)NC(C)c2cccc(OC)c2)c1 (centres unmarked) [Compound 16O] | 21% | 81% | 129% |  |  | 
C[C@@H](NCc1ccc2c(c1)OCO2)c1cccc2ccccc12 [Compound 16R] | 76% | 100% |  |  |  | 
COc1cc(C)c(CN[C@H](C)c2cccc3ccccc23)cc1C [Compound 16U] | 50% | 85% |  |  |  | 
CCOc1ccc(CN[C@H](C)c2cccc3ccccc23)cc1 [Compound 16W] | 73% | 102% |  |  |  | 
C[C@@H](NCc1ccc(C#N)cc1)c1cccc2ccccc12 [Compound 16Z] | 51% | 88% |  |  |  | 
CC(=O)c1ccc(CN[C@H](C)c2cccc3ccccc23)cc1 [Compound 17C] | 99% | 120% | 113% |  |  | 
C[C@@H](NCc1ccc(Br)cc1)c1cccc2ccccc12 [Compound 17D] | 91% | 108% |  |  |  | 
C[C@@H](NCc1ccc(I)cc1)c1cccc2ccccc12 [Compound 17E] | 110% | 110% | 116% |  |  | 
C[C@@H](NCc1ccc(C(F)(F)F)cc1)c1cccc2ccccc12 [Compound 17F] | 90% | 111% |  |  |  | 
COc1ccc(C(N[C@H](C)c2cccc3ccccc23)C2CC2)cc1 (some centres unmarked) [Compound 17H] | 111% | 124% | 126% |  |  | 
CC(NC(C)c1cccc2ccccc12)c1ccc(Cl)c(Cl)c1 (centres unmarked) [Compound 17J] | 122% | 118% | 116% |  |  | 
CC(NC(C)c1cccc2ccccc12)c1ccc(Cl)c(Cl)c1 (centres unmarked) [Compound 17K] | 73% | 97% | 98% |  |  | 
COc1ccc(CN[C@H](C)c2cccc3ccccc23)c(C)c1C [Compound 17L] | 78% | 104% | 111% |  |  | 
COc1ccc(CN[C@H](C)c2cccc3ccccc23)cc1Cl.Cl [Compound 17M, N-(3-chloro-4-methoxybenzyl)-(R)-1-(1-naphthyl) ethylamine hydrochloride] | 99% | 115% |  |  |  | 
Cc1ccc([C@@H](C)N[C@H](C)c2cccc3ccccc23)cc1C [Compound 17N] | 86% | 108% |  |  |  | 
COc1cccc([C@@H](C)NCCCc2ccccc2I)c1 [Compound 17R] | 65% | 98% |  |  |  | 
COc1ccc(CNCc2ccccc2OC)cc1C [Compound 17V] | 27% | 66% | 91% |  |  | 
Cc1cc(C(C)NC(C)c2cccc3ccccc23)ccc1O (centres unmarked) [Compound 17W] | 67% | 92% |  |  |  | 
COc1ccc(CNCc2cccc3ccccc23)cc1C [Compound 17Y] | 79% | 94% | 109% |  |  | 
COc1ccc(CNC(C)c2cccc3ccccc23)cc1C (centres unmarked) [Compound 17Z] | 73% | 99% |  |  |  | 

Compound | % activity (33 ng/mL) | % activity (330 ng/mL) | % activity (3300 ng/mL) | % activity (330 ng/mL, listed as 4U) | activity at […] (33 ng/mL) | activity at […] (330 ng/mL)
COc1ccc(CNC(C)c2ccc(F)c3ccccc23)cc1C (centres unmarked) [Compound 18A] | 88% | 111% |  |  |  | 
COc1ccc(CNC(C)c2c(OC)ccc3ccccc23)cc1C (centres unmarked) [Compound 18B] | 69% | 96% | 111% |  |  | 
COc1ccc(CNC(C)c2ccc(OC)c3ccccc23)cc1C (centres unmarked) [Compound 18C] | 60% | 87% | 99% |  |  | 
COc1ccc(CNC(C)c2cccc(-c3ccccc3)c2)cc1C (centres unmarked) [Compound 18T] | 52% | 74% | 99% |  |  | 
C[C@@H](NCCCc1ccccc1Cl)c1cccc(OCC(F)(F)F)c1 [Compound 20Y] | 74% | 95% | 117% |  |  | 
COc1cccc([C@@H](C)NC(C)CCc2ccccc2Cl)c1 (some centres unmarked) [Compound 21C = 4U] |  |  |  | 72% |  | 
COc1cccc([C@@H](C)N[C@@H](C)CCc2ccccc2)c1 [Compound 21E, (S,R)-N-(4-pbenyl-2-butyl)-1-(3-methoxyphenyl)ethylamine] | 64% | 94% |  |  |  | 
COc1cccc([C@@H](C)NCCCc2cccc(OC(F)(F)F)c2)c1 [Compound 21M] | 58% | 102% |  |  |  | 
COc1cccc([C@@H](C)NCCCc2ccc(OC(F)(F)F)cc2)c1 [Compound 21N] | 42% | 98% | 124% |  |  | 
COc1cccc([C@@H](C)NCCCc2ccccc2C(F)(F)F)c1 [Compound 21O] | 75% | 109% |  |  |  | 
COc1cccc([C@@H](C)NCCCc2cccc(C(F)(F)F)c2)c1 [Compound 21P] | 56% | 92% |  |  |  | 
COc1cccc([C@@H](C)NCCCc2ccccc2F)c1 [Compound 21R] | 66% | 100% |  |  |  | 
CCCOc1cccc([C@@H](C)NCCCc2ccccc2Cl)c1 [Compound 21S] | 85% | 131% | 132% |  |  | 
CC(C)Oc1cccc([C@@H](C)NCCCc2ccccc2Cl)c1 [Compound 21T] | 53% | 112% | 133% |  |  | 
C[C@@H](NCCCc1ccccc1Cl)c1cccc(OCC(F)F)c1 [Compound 21V] | 99% | 116% | 122% |  |  | 
COc1cccc([C@@H](C)N[C@@H](C)CCc2cccc(C(F)(F)F)c2)c1 [Compound 21X] | 51% | 101% | 119% |  |  | 
COc1cccc([C@@H](C)N[C@H](C)CCc2cccc(C(F)(F)F)c2)c1 [Compound 21Y, (R,R)-N-[4-(3-trifluoromethylphenyl)-2-butyl]-1-(3-methoxyphenyl)ethylamine] | 68% | 100% |  |  |  | 
C[C@@H](NCCCc1cccc(C(F)(F)F)c1)c1cccc2ccccc12 [Compound 22J] | 71% | 99% |  |  |  | 
C[C@H](CCc1cccc(OC(F)(F)F)c1)N[C@@H](C)c1cccc2ccccc12 [Compound 22X, (S,R)-N-[4-(3-trifluoromethoxyphenyl)-2-butyl]-1-(1-naphthyl)ethylamine] |  |  |  |  | 48% | 86%
C[C@H](CCc1cccc(OC(F)(F)F)c1)N[C@H](C)c1cccc2ccccc12 [Compound 22Y, (R,R)-N-[4-(3-trifluoromethoxyphenyl)-2-butyl]-1-(1-naphthyl)ethylamine] |  |  |  |  | 64% | 114%
COc1cccc([C@@H](C)N[C@H](C)CCc2cccc(OC(F)(F)F)c2)c1 [Compound 23A, (R,R)-N-[4-(3-trifluoromethoxyphenyl)-2-butyl]-1-(3-methoxyphenyl)ethylamine] | 67% | 103% |  |  |  | 
Cc1ccc(CNCc2cccc3c(Br)cccc23)cc1C [Compound 23D] | 35% | 66% | 91% |  |  | 
C[C@@H](NCc1cccc(OC(F)(F)F)c1)c1cccc2ccccc12 [Compound 23E] | 102% | 113% | 137% |  |  | 
C[C@@H](NCc1ccc(OC(F)(F)F)cc1)c1cccc2ccccc12 [Compound 23F] | 45% | 82% |  |  |  | 
